The values that follow come from PMC10296061, “Inhibition of the Mitochondrial Carnitine/Acylcarnitine Carrier by Itaconate through Irreversible Binding to Cysteine 136: Possible Pathophysiological Implications” (Biomolecules, 2023).

In one experiment the target is T1, CAC C155A mutant (Rattus norvegicus, UniProt P97521, C155A).
T1 construct: made in house; host or cells: E. coli C0214
T1 sequence (P97521 1-301 C155A): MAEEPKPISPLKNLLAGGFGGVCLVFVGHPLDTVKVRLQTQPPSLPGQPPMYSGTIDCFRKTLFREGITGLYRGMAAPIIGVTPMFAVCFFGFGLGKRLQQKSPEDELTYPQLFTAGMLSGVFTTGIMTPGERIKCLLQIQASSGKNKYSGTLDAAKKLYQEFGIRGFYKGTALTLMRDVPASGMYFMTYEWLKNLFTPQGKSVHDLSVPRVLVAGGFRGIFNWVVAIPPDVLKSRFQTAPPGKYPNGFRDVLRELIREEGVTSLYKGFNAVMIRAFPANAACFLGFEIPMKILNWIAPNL
The experiment is described as follows: Transport assay in proteoliposomes, CAC mutant C155A. The format is biochemical. As to conditions: read-out: IC50 for itaconate inhibition. As to the method:
As previously described, the pMW7-WTratCAC recombinant plasmid was used for over-expressing the rat CAC [22]. The overlap extension method was used to introduce the mutations; in the main time, NdeI and HindIII restriction sites were also added using appropriate primers. The PCR products were purified by the QIAEX II Gel Extraction Kit (QIAGEN) and digested with NdeI and HindIII and then ligated into the pMW7. All mutations were verified by DNA sequencing. The resulting plasmid constructs were transformed into E. coli C0214. Overexpression, inclusion body fraction preparation, and purification of the CAC proteins were performed as previously described. […]
(§1) To test the transport activity of the CAC, 550 μL of proteoliposomes was passed through a Sephadex G-75 column to remove the external substrate. […] Transport rates were measured in 10 min, i.e., within the initial linear range of the time course, at 25 °C. After terminating the transport reaction, the external substrate was removed by chromatography on the Sephadex G-75 column, and the intraliposomal radioactivity was measured. […]
Figure 3 Identification of residue responsible for itaconate inhibition. […] Transport activity of the WT (○), C136A (●), C155A (Δ), C23V/C58V/C89S/C155V/C283S (▲), and C23V/C58V/C89S/C136V/C155V/C283S (□) was measured by adding 0.1 mM [^3H]carnitine after treatment by itaconate at the indicated concentrations. […]

For the next experiment, the target named is T2, recombinant ORC (hORC1) (Homo sapiens, UniProt Q9Y619).
T2 construct: encodes a full-length hORC1 protein with a His6 tag before the termination codon; His6 (C); made in house; host or cells: E. coli C0214
T2 sequence (Q9Y619 1-301): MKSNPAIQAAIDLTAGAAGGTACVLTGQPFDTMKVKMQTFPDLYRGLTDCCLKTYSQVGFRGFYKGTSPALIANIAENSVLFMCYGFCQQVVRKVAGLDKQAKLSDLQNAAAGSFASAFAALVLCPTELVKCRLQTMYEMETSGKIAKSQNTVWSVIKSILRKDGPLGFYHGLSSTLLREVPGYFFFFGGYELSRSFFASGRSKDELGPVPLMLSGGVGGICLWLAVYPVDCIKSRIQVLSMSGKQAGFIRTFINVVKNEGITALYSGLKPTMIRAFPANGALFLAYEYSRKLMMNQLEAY
The experiment can be described thus: [3H]ornithine transport in proteoliposomes reconstituted with recombinant ORC. As to conditions: read-out: IC50 for itaconate inhibition. Format: biochemical.
Description: The 903 bp cDNA coding for the hORC1Wild Type (WT) protein was amplified from the Mega Man Human Transcriptome Library with the forward and reverse primers 5′-[…]-3′ and 5′-[…]-3′, containing the NdeI and HindIII sites, respectively. The amplified cDNA was then cloned in the NdeI/HindIII sites of the pET-21a(+) expression vector. The resulting recombinant plasmid, defined as pET-21a(+)-hORC1, encodes a full-length hORC1 protein with a His6 tag before the termination codon. […]
as §1
Figure 3 Identification of residue responsible for itaconate inhibition. […] Transport activity of the WT (○), C136A (●), C155A (Δ), C23V/C58V/C89S/C155V/C283S (▲), and C23V/C58V/C89S/C136V/C155V/C283S (□) was measured by adding 0.1 mM [^3H]carnitine after treatment by itaconate at the indicated concentrations. […] Transport activity was measured by adding 0.1 [^3H]ornithine, respectively, as described in Materials and Methods. […]

SMILES strings stand for the structures.

One may read the IC50 as the midpoint of a concentration-inhibition curve. Take `C=C(CC(=O)O)C(=O)O` [itaconate]: the IC50 was 3.8 ± 0.64 mM on CAC C155A mutant and 44 ± 6 mM at recombinant ORC (hORC1).
